# Patent US8940731B2, “Substituted pyridyl amide compounds as modulators of the histamine H3 receptor” (Janssen Pharmaceutica NV, priority 2006, dated 2015)
# Where a name gives a salt, the structure may show the parent alone.
# Target: T1, cloned human H3 receptors (Homo sapiens, UniProt Q9Y5N1)
# T1 construct: expressed in transfected cells
# Experiment: H3 Receptor Binding (Human)
# Settings: bromo-pyridine intermediates (Step A), value given in the synthesis; read-out: Assay 1 (Human H3): Ki
# Procedure: H3 Receptor Binding (Human)
# Binding of compounds to the cloned human H3 receptors, stably expressed in SK-N-MC cells, was performed as described by Barbier, A. J. et al. (Br. J. Pharmacol. 2004, 143(5), 649-661).
# T1 sequence (Q9Y5N1 whole entry): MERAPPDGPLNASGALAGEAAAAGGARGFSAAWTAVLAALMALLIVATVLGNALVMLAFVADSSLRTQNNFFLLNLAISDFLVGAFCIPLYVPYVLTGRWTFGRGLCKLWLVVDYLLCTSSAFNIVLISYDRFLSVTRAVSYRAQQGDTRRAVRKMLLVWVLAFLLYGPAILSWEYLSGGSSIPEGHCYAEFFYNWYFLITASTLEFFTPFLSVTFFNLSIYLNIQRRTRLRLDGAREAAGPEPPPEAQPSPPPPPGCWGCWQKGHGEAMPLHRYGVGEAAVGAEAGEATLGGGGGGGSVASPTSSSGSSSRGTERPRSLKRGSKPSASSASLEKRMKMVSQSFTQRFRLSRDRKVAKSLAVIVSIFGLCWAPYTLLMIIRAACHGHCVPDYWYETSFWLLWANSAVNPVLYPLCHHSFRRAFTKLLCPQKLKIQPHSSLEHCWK
row,SMILES,Ki [nM]
1,"O=C(c1ccc(Br)cn1)N1CCCN(C2CCC2)CC1 [(5-Bromo-pyridin-2-yl)-(4-cyclobutyl-[1,4]diazepan-1-yl)-methanone]",11
2,"O=C(c1ccc(Br)cn1)N1CCCN(C2CC2)CC1 [(5-Bromo-pyridin-2-yl)-(4-cyclopropyl-[1,4]diazepan-1-yl)-methanone]",115
3,"CC(C)N1CCCN(C(=O)c2ccc(Br)cn2)CC1 [(5-Bromo-pyridin-2-yl)-(4-isopropyl-[1,4]diazepan-1-yl)-methanone]",194
4,"O=C(c1cccc(Br)n1)N1CCCN(C2CCC2)CC1 [(6-Bromo-pyridin-2-yl)-(4-cyclobutyl-[1,4]diazepan-1-yl)-methanone]",33
5,"O=C(c1cccc(Br)n1)N1CCCN(C2CC2)CC1 [(6-Bromo-pyridin-2-yl)-(4-cyclopropyl-[1,4]diazepan-1-yl)-methanone]",431
6,"CC(C)N1CCCN(C(=O)c2cccc(Br)n2)CC1 [(6-Bromo-pyridin-2-yl)-(4-isopropyl-[1,4]diazepan-1-yl)-methanone]",752
7,CC(C)N1CCN(C(=O)c2cccc(Br)n2)CC1 [(6-Bromo-pyridin-2-yl)-(4-isopropyl-piperazin-1-yl)-methanone],1400

# Same assay, conditions: cloned human H3 receptors stably expressed in SK-N-MC cells; average of the results obtained; read-out: Human H3 Ki
row,SMILES,Ki [nM]
1,"CC(C)N1CCN(C(=O)c2ccc(Oc3ccc(Cl)c(Cl)c3)nc2)CC1 [Example 1, [6-(3,4-Dichloro-phenoxy)-pyridin-3-yl]-(4-isopropyl-piperazin-1-yl)-methanone]",29
2,"CC(C)N1CCN(C(=O)c2ccc(Oc3cccnc3)nc2)CC1 [Example 2, (4-Isopropyl-piperazin-1-yl)-[6-(pyridin-3-yloxy)-pyridin-3-yl]-methanone]",56
3,"CSc1ccc(Oc2ccc(C(=O)N3CCN(C(C)C)CC3)cn2)cc1 [Example 3, (4-Isopropyl-piperazin-1-yl)-[6-(4-methylsulfanyl-phenoxy)-pyridin-3-yl]-methanone]",66
4,"CC(C)N1CCN(C(=O)c2ccc(Oc3cccc(Cl)c3)nc2)CC1 [Example 4, [6-(3-Chloro-phenoxy)-pyridin-3-yl]-(4-isopropyl-piperazin-1-yl)-methanone]",56
5,"CC(C)N1CCN(C(=O)c2ccc(Oc3ccccc3)nc2)CC1 [Example 5, (4-Isopropyl-piperazin-1-yl)-(6-phenoxy-pyridin-3-yl)-methanone]",71
6,"Cc1cc(Oc2ccc(C(=O)N3CCN(C(C)C)CC3)cn2)ccc1Cl [Example 6, [6-(4-Chloro-3-methyl-phenoxy)-pyridin-3-yl]-(4-isopropyl-piperazin-1-yl)-methanone]",32
7,"CC(C)N1CCN(C(=O)c2ccc(Oc3cccc(C#N)c3)nc2)CC1 [Example 7, 3-[5-(4-Isopropyl-piperazine-1-carbonyl)-pyridin-2-yloxy]-benzonitrile]",57
8,"CC(C)N1CCN(C(=O)c2ccc(Oc3ccc(Cl)cc3)nc2)CC1 [Example 8, [6-(4-Chloro-phenoxy)-pyridin-3-yl]-(4-isopropyl-piperazin-1-yl)-methanone]",68
9,"O=C(c1ccc(Oc2ccc(Cl)cc2)nc1)N1CCCN(C2CC2)CC1 [Example 10, [6-(4-Chloro-phenoxy)-pyridin-3-yl]-(4-cyclopropyl-[1,4]diazepan-1-yl)-methanone]",10
10,"CC(C)N1CCCN(C(=O)c2ccc(Oc3ccc(Cl)c(Cl)c3)nc2)CC1 [Example 15, [6-(3,4-Dichloro-phenoxy)-pyridin-3-yl]-(4-isopropyl-[1,4]diazepan-1-yl)-methanone]",8
11,"Cc1cc(Oc2ccc(C(=O)N3CCCN(C4CCC4)CC3)cn2)ccc1Cl [Example 16, [6-(4-Chloro-3-methyl-phenoxy)-pyridin-3-yl]-(4-cyclobutyl-[1,4]diazepan-1-yl)-methanone]",2
12,"Cc1cc(Oc2ccc(C(=O)N3CCCN(C(C)C)CC3)cn2)ccc1Cl [Example 17, [6-(4-Chloro-3-methyl-phenoxy)-pyridin-3-yl]-(4-isopropyl-[1,4]diazepan-1-yl)-methanone]",5
13,"O=C(c1ccc(Oc2ccc(F)cc2)nc1)N1CCN(C2CC2)CC1 [Example 22, (4-Cyclopropyl-piperazin-1-yl)-[6-(4-fluoro-phenoxy)-pyridin-3-yl]-methanone]",180
14,"CC(C)N1CCN(C(=O)c2ccc(Oc3ccc(F)c(F)c3)nc2)CC1 [Example 28, [6-(3,4-Difluoro-phenoxy)-pyridin-3-yl]-(4-isopropyl-piperazin-1-yl)-methanone]",13
15,"O=C(c1ccc(Oc2cc(Cl)cc(Cl)c2)nc1)N1CCCN(C2CCC2)CC1 [Example 33, (4-Cyclobutyl-[1,4]diazepan-1-yl)-[6-(3,5-dichloro-phenoxy)-pyridin-3-yl]-methanone]",1
16,"O=C(c1ccc(Oc2cc(F)ccc2F)nc1)N1CCCN(C2CC2)CC1 [Example 34, (4-Cyclopropyl-[1,4]diazepan-1-yl)-[6-(2,5-difluoro-phenoxy)-pyridin-3-yl]-methanone]",5
17,"O=C(c1ccc(Oc2cc(Cl)cc(Cl)c2)nc1)N1CCCN(C2CC2)CC1 [Example 35, (4-Cyclopropyl-[1,4]diazepan-1-yl)-[6-(3,5-dichloro-phenoxy)-pyridin-3-yl]-methanone]",3
18,"CC(C)N1CCCN(C(=O)c2ccc(Oc3cccc(F)c3)nc2)CC1 [Example 38, [6-(3-Fluoro-phenoxy)-pyridin-3-yl]-(4-isopropyl-[1,4]diazepan-1-yl)-methanone]",6
19,"CSc1ccc(Oc2ccc(C(=O)N3CCCN(C(C)C)CC3)cn2)cc1C [Example 42, (4-Isopropyl-[1,4]diazepan-1-yl)-[6-(3-methyl-4-methylsulfanyl-phenoxy)-pyridin-3-yl]-methanone]",12
20,"CC(C)N1CCN(C(=O)c2cccc(Oc3ccc(Cl)c(Cl)c3)n2)CC1 [Example 43, [6-(3,4-Dichloro-phenoxy)-pyridin-2-yl]-(4-isopropyl-piperazin-1-yl)-methanone]",299
21,"O=C(c1cccc(Oc2ccc(Cl)c(Cl)c2)n1)N1CCCN(C2CC2)CC1 [Example 44, (4-Cyclopropyl-[1,4]diazepan-1-yl)-[6-(3,4-dichloro-phenoxy)-pyridin-2-yl]-methanone]",327
22,"O=C(c1cccc(Oc2ccc(Cl)c(Cl)c2)n1)N1CCCN(C2CCC2)CC1 [Example 45, (4-Cyclobutyl-[1,4]diazepan-1-yl)-[6-(3,4-dichloro-phenoxy)-pyridin-2-yl]-methanone]",34
23,"CC(C)N1CCCN(C(=O)c2cccc(Oc3ccc(Cl)c(Cl)c3)n2)CC1 [Example 46, [6-(3,4-Dichloro-phenoxy)-pyridin-2-yl]-(4-isopropyl-[1,4]diazepan-1-yl)-methanone]",202
24,"Cc1cc(Oc2cccc(C(=O)N3CCCN(C4CC4)CC3)n2)ccc1Cl [Example 47, [6-(4-Chloro-3-methyl-phenoxy)-pyridin-2-yl]-(4-cyclopropyl-[1,4]diazepan-1-yl)-methanone trifluoroacetic acid salt]",357
25,"Cc1cc(Oc2cccc(C(=O)N3CCCN(C4CCC4)CC3)n2)ccc1Cl [Example 48, [6-(4-Chloro-3-methyl-phenoxy)-pyridin-2-yl]-(4-cyclobutyl-[1,4]diazepan-1-yl)-methanone trifluoroacetic acid salt]",67
